Source: patent US20230405078A1, “DETECTION AND TREATMENT OF INTESTINAL FIBROSIS” (THE REGENTS OF THE UNIVERSITY OF CALIFORNIA, priority 2020, published 2023)

Assays:
[1] = test system: Primary non-IBD patient-derived colonic fibroblasts; assay: TGF-β1-induced collagen expression in primary non-IBD patient-derived colonic fibroblasts; format: cell-based, human; details: TGF-β1 10 ng/ml; elafin 1 μg/ml 24 hours
Description: Cleveland Clinic IRB directives (IRB #17-1167). Primary non-IBD patient-derived colonic fibroblasts (H6231) were purchased from Cell Biologics. All primary colonic fibroblasts were cultured in fibroblast medium (M2267, Cell Biologics). Human colonic CCD-18Co fibroblasts (ATCC) were cultured in minimal essential medium Eagle's medium (MEM) containing 10% fetal bovine serum and 1% penicillin-streptomycin 6, 20. All fibroblasts were grown to 80% confluence and then switched to serum-free media overnight for experiments.
For activation of protease-activated receptors (PARs), fibroblasts were pretreated with 0.8% DMSO, 10 μM PAR1 agonist TRAP-6 (HY-P0078, MCE), 10 μM PAR2 agonist SLIGKV-NH2 (Protease-Activated Receptor-2, amide, HY-P0283, MCE), or 0.4 μg/ml PAR2-activating protease recombinant cathepsin S (1183-CY-010, R&D Systems) for 30 minutes. For miR205-5p activation, fibroblasts were transfected with (30 picomoles/well) either control (YM00479902) or miR205-5p miRCURY LNA mimic (YM00472340) from Qiagen via Lipofectamine 3000 transfection reagent (L3000001, ThermoFisher) in Opti-MEM (#31985062, ThermoFisher) overnight. For miR205-5p inhibition, fibroblasts were pretreated with 50nM either control (Y100199006) or miR205-5p power inhibitors (Y104101508-DDA) from Qiagen overnight. […]

CD patient-derived PBMCs = assay: Cytokine multiplex assay in serum exosome-preconditioned CD PBMCs; format: cell-based, human; details: CDSE-preconditioned CD PBMCs; 1 μg/ml elafin 6 hours
Description: FIG. 30. Cytokine levels in mouse and human sera and CD-PBMCs. (A) Mouse serum cytokine levels were measured by a 23-plex multiplex assay (#M60009RDPD, Bio-Rad). n=5 mice per group. (B) Human serum cytokines were measured by a 27-plex multiplex assay (#M500KCAFOY, Bio-rad). 12 normal, 23 UC, and 43 CD patients. (C) CD patient-derived PBMCs were preconditioned with stricturing CD patient (CDS) or non-stricturing CD patient (CDNS)-derived serum exosomes for two hours, followed by exposure to either 0.1% TFA or 1 μg/ml elafin for 6 hours. The cell supernatants were collected for a 13-plex cytokine multiplex assay (HSTCMAG28SPMX13, Millipore Sigma). (D) A comparison of cytokine levels in mouse sera, human sera, and conditioned media of CDS and CDNS serum exosome-conditioned CD-PBMCs. ns=no significant difference. ND=below detection range. N/A=unavailable. Mo=monocytes. MO=macrophages, DC=dendritic cells.
CD PBMCs (#70052, […] Technologies) were cultured in RPMI1640 media containing 10% exosome-depleted fetal bovine serum (A2720803, ThermoFisher) and 1% penicillin-streptomycin. Some groups were conditioned with 100 μg/ml of human serum exosomes from either CDSE or non-stricturing CD (CDNSE) patients to mimic the CD chemical environment for two hours, followed by addition with either 0.1% TFA or 1 μg/ml elafin. […]

[2] = test system: primary human intestinal fibroblasts from CD patients; assay: Elafin exposure of primary human intestinal fibroblasts from CD patients (Example 1); format: cell-based; details: elafin 24 hours
Description: FIG. 6. Elafin promotes fibrogenesis in human colonic fibroblasts. (A) The human colonic CCD-18Co fibroblasts were incubated with 100 μl/ml (10%) of human sera from normal, stricturing CD, and non-stricturing CD patients in serum-free DMEM for 24 hours. (B) The human colonic CCD-18Co fibroblasts were incubated with 100 μl/ml (10%) of human sera from high elafin CD group (>8000 pg/ml) and low elafin CD group (<8000 pg/ml) in serum-free DMEM for 24 hours. (C) Serum-starved CCD-18Co fibroblasts were pretreated with 15 μg/ml of anti-elafin neutralizing antibody or control antibody for 30 minutes, followed by exposure to (100 μl/ml) human sera from normal and stricturing CD patients for 24 hours. Six serum donors per group. […] Pro-COL1A1 protein levels in cell lysates were determined by ELISA. (E) Serum-starved primary human intestinal fibroblasts from CD patients were exposed to elafin for 24 hours. mRNA expression was determined by real-time RT-PCR. […]
Total RNA was isolated by an RNeasy kit (#74104, Qiagen) and reverse transcribed into cDNA by a high-capacity cDNA RT kit (#4368813, ThermoFisher). Quantitative PCR reactions were run with Fast Universal PCR master mix (#4352042, ThermoFisher) in a Bio-Rad CFX384 system. […] Relative mRNA quantification was performed by comparing test groups and normal control group, after normalization with endogenous control gene human 18S (Hs99999901_s1).

Elafin: small (6 kDa) human elastase-specific protease inhibitor and antimicrobial peptide; active form SEQ ID NO: 2 (AQEPVKGPVSTKPGSCPIILIRCAMLNPPNRCLKDTDCPGIKKCCEGSCGMACFVPQ; listed as Homo sapiens)
TGF-β1 induced COL1A2 and ProCOL1A1 protein expression [1]: reversed
T-cell cytokine secretion (CD patient-derived PBMCs): did not affect
collagen (COL3A1 and COL1A2), ACTA2 and TGF-b1 mRNA expression [2]: increased
